# In paper PMC11951083, “Highly Specific Miniaturized Fluorescent Monoacylglycerol Lipase Probes Enable Translational Research” (Journal of the American Chemical Society, 2025):
# Legend:
# [1] = molecular target: T1, MAGL (Homo sapiens, UniProt Q99685); assay: Native MS (RapidFire) 2-AG substrate assay, purified human MAGL; format: biochemical; details: SI Table 1; read-out: IC50 against purified MAGL ± SEM, Human
# T1 sequence (Q99685 1-303): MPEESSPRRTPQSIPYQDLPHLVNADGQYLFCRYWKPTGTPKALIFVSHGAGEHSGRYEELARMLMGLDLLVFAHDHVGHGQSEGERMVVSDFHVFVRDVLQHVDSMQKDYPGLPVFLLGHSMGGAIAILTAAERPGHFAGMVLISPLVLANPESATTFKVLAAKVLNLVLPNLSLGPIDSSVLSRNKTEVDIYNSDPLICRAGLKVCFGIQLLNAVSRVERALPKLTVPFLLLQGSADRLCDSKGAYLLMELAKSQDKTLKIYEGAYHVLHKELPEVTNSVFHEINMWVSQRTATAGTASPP
# Method: (§1) In vitro MAGL Inhibition Assay
# (§2) Compounds were profiled for MAGL inhibitory activity by determining the enzymatic activity by following the hydrolysis of the natural substrate 2-arachidonoylglycerol (2-AG), resulting in arachidonic acid, which can be followed by mass spectrometry. The 2-AG assay was carried out in 384 well assay plates (PP, Greiner Cat# 784201) in a total volume of 20 µL. Compound dilutions were made in 100% DMSO (VWR Chemicals 23500.297) in a polypropylene plate in 3-fold dilution steps to give a final concentration range in the assay from 12.5 µM to 0.8 pM. 0.25µL compound dilutions (100% DMSO) were added to 9 µL MAGL in assay buffer (50 mM TRIS (GIBCO, 15567-027), 1 mM EDTA (Fluka, 03690-100 mL), 0.01% (v/v) Tween. After shaking, the plate was incubated for 15 min at RT. To start the reaction, 10 µL 2-arachidonoylglycerol in assay buffer was added. The final concentrations in the assay were 50 pM MAGL and 8 µM 2-arachidonoylglyerol. After shaking and 30 min incubation at RT, the reaction was quenched by the addition of 40µL of ACN containing 4µM of d8-arachidonic acid. The amount of arachidonic acid was traced by an online SPE system (Agilent Rapidfire) coupled to a triple quadrupole mass spectrometer (Agilent 6460). A C18 SPE cartridge (G9205A) was used in an ACN/water liquid setup. The mass spectrometer was operated in negative electrospray mode following the mass transitions 303.1 → 259.1 for arachidonic acid and 311.1 → 267.0 for d8-arachidonic acid. The activity of the compounds was calculated based on the ratio of intensities [arachidonic acid / d8-arachidonic acid]. The lowest IC50 value that can be determined with high accuracy is approximately 0.025 nM.
# [2] = molecular target: T2, mMAGL (Mus musculus, UniProt O35678); assay: Native MS (RapidFire) 2-AG substrate assay, purified mouse MAGL; format: biochemical; details: SI Table 1; read-out: IC50 against purified MAGL ± SEM, Mouse
# T2 sequence (O35678 1-303): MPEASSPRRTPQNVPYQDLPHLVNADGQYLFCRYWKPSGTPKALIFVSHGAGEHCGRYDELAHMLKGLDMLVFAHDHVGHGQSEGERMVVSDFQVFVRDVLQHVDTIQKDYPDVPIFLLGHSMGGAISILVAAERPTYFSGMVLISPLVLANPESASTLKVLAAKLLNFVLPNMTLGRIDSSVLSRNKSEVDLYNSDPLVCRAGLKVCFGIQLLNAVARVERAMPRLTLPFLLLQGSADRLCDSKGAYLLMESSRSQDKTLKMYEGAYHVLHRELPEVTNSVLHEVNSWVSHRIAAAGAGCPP
# Method: as §1, §2
# [3] = molecular target: NanoLuc luciferase MAGL fusion protein; assay: Cellular MAGL NanoBRET target engagement assay in live HEK293 cells; format: cell-based; details: SI Table 1, live HEK293 cells; read-out: NanoBRET IC50 ± SEM, HEK293
# Method: This assay was performed as first described before.20
# Compounds were profiled by a novel cellular MAGL NanoBRET™ Target Engagement assay, which measures the apparent affinity of test compounds by competitive displacement of a Roche -developed Tracer (WO2021058443, Example 2 121, or probe 4a, respectively), reversibly bound to a NanoLuc ® luciferase MAGL fusion protein in cells.
# A HEK293A stable cell line expressing NanoLuc_MAGL was established at Roche and assigned as HEK293A_NanoLuc_MAGL clone #43. A fixed concentration of tracer is added to cells expressing the NanoLuc®_MAGL fusion protein to generate a BRET reporter complex. The introduction of competing compounds results in a dose -dependent decrease in NanoBRET™ energy transfer, which allows quantification of the intracellular affinity of the target protein for the test compound.
# HEK293A_NanoLuc_MAGL clone #43 cells were cultured in DMEM (Gibco 31966) with 10% FBS and 800 ug/ml G418. The NanoBRET assay was performed by seeding 5000 cells/well in Costar low - volume white 384-well plate in assay buffer (1% FBS in HBSS), followed by adding the tracer (50 nM Example 21 or 100 nM 4a final concentration) and serial dilutions of test compounds. After 2 hours of incubation, Nanoluciferase substrates and extracellular inhibitors were added following the manufacturer's protocol (Promega, #N2520), and the NanoBRET signaling were quantified with the Paradigm (Molecular Devices).
# [4] = molecular target: T3, rMAGL (Rattus norvegicus, UniProt Q8R431); assay: Native MS (RapidFire) 2-AG substrate assay, purified rat MAGL; format: biochemical; details: SI Table 1; read-out: IC50 against purified MAGL ± SEM, Rat
# T3 sequence (Q8R431 1-303): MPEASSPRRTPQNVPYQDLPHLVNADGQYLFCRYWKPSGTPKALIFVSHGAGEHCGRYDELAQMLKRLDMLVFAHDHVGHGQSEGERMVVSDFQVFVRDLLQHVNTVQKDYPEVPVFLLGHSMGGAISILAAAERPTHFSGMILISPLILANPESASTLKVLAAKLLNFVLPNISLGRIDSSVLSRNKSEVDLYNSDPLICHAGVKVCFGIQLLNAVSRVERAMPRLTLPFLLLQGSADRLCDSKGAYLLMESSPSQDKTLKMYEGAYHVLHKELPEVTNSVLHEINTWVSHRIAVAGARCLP
# Method: as §1, §2
# [5] = molecular target: T4, cMAGL (Macaca fascicularis, UniProt A0A2K5V664); assay: Native MS (RapidFire) 2-AG substrate assay, purified cynomolgus monkey MAGL; format: biochemical; details: SI Table 1; read-out: IC50 against purified MAGL ± SEM, Cynomolgus
# T4 sequence (A0A2K5V664 11-297): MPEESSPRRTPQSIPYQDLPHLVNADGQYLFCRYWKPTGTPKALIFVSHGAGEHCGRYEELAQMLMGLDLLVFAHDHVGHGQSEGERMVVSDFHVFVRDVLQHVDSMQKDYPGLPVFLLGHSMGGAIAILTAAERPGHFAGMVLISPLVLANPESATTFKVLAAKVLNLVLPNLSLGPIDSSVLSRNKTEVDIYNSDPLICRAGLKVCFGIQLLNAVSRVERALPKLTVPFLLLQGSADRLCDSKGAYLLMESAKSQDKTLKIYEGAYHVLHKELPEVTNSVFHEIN
# Method: as §1, §2
SMILES,IC50 [1],IC50 [2],IC50 [3],IC50 [4],IC50 [5]
O=C1CO[C@H]2CCN(C(=O)N3CC4(CC(=CC5=C6C=CC=[N+]6[B-](F)(F)n6cccc65)C4)C3)C[C@H]2N1 [Compound S13],43.3 nM,182 nM,> 10000 nM,–,–
NC(=O)[C@H]1CCN(C(=O)N2CC3(CC(CC4=C5C=CC=[N+]5[B-](F)(F)n5cccc54)C3)C2)C1 [Compound S18],1.98 nM,2.07 nM,1940 nM,–,–
O=C1NC2(CO1)CN(C(=O)N1CC3(CCC(=CC4=C5C=CC=[N+]5[B-](F)(F)n5cccc54)CC3)C1)C2 [Compound S16],0.67 nM,0.81 nM,574 nM,–,–
Cc1ccc2oc(N3CCN(C(=O)N4CC5(CC(CC6=C7C=CC=[N+]7[B-](F)(F)n7cccc76)C5)C4)CC3)nc2n1 [Compound S20],17.2 nM,108 nM,> 10000 nM,–,–
O=C1NC2(CO1)CN(C(=O)N1CC3(CC(CC4=C5C=CC=[N+]5[B-](F)(F)n5cccc54)C3)C1)C2 [Compound S15],1.26 nM,1.36 nM,5540 nM,4.46 nM,3.27 nM
O=C1N[C@H](CCC(=O)N2CC3(CC(CC4=C5C=CC=[N+]5[B-](F)(F)n5cccc54)C3)C2)CO1 [Compound S17],1.01 nM,0.84 nM,300 nM,–,–
O=C1CO[C@H]2CCN(C(=O)N3CC4(CC(CC5=C6C=CC(c7ccccc7)=[N+]6[B-](F)(F)n6cccc65)C4)C3)C[C@H]2N1 [Compound S22],0.66 nM,0.37 nM,56 ± 6 nM,–,–
O=C1COc2ccc(C(=O)N3CC4(CC(CC5=C6C=CC=[N+]6[B-](F)(F)n6cccc65)C4)C3)cc2N1 [Compound S19],7.5 nM,18.6 nM,299 nM,–,–
O=C1NC2(CO1)CN(C(=O)N1CC3(CC(=CC4=C5C=CC=[N+]5[B-](F)(F)n5cccc54)C3)C1)C2 [Compound S14],12.6 nM,12.4 nM,> 10000 nM,–,–

# Continued, values first:
IC50 [1],IC50 [2],IC50 [3],IC50 [4],IC50 [5],SMILES
2.35 nM,12.4 nM,564 nM,10.9 nM,2.73 nM,O=C1CO[C@H]2CCN(C(=O)N3CC4(CCC(CC5=C6C=CC=[N+]6[B-](F)(F)n6cccc65)CC4)C3)C[C@H]2N1 [Compound S12]
3.99 nM,13.6 nM,> 10000 nM,–,–,O=C1NC2(CO1)CN(C(=O)N1CCC3(CC1)CC(OC1=C4C=CC=[N+]4[B-](F)(F)n4cccc41)C3)C2 [Compound S8]
3.82 ± 1.91 nM,7.06 ± 4.73 nM,4630 ± 52 nM,21.6 nM,8.37 nM,O=C1CO[C@H]2CCN(C(=O)N3CC4(CCC(OC5=C6C=CC=[N+]6[B-](F)(F)n6cccc65)CC4)C3)C[C@H]2N1 [Compound S4]
45 nM,170 nM,> 10000 nM,–,–,O=C1CO[C@H]2CCN(C(=O)N3CCC4(CC3)CC(OC3=C5C=CC=[N+]5[B-](F)(F)n5cccc53)C4)C[C@H]2N1 [Compound S6]
1680 nM,3400 nM,> 10000 nM,–,–,O=C1CO[C@H]2CCN(C(=O)N3CCC(=CC4=C5C=CC=[N+]5[B-](F)(F)n5cccc54)CC3)C[C@H]2N1 [Compound S10]
500 nM,1040 nM,> 10000 nM,–,–,O=C1CO[C@H]2CCN(C(=O)N3C[C@@H]4[C@@H](COC5=C6C=CC=[N+]6[B-](F)(F)n6cccc65)[C@@H]4C3)C[C@H]2N1 [Compound S3]
